Reference: patent publication US20120225862A1, “HETEROARYL BENZAMIDES, COMPOSITIONS AND METHODS OF USE” (AUCKLAND UNIVSERVICES LIMITED, priority 2009, published 2012)

Key:
RCC4 [1] = assay: 3H-2-deoxyglucose uptake, RCC4; type: cell-based, human; conditions: 3H-2-deoxyglucose, two days of treatment, 5 μM
Method: One hundred thousand cells were plated into 6-well plates. The following day, the cells were treated with vehicle or drug and incubated for the indicated time. Cells were washed twice in phosphate buffered saline and low glucose media was added for 30 minutes. Cells were then incubated with 0.5 microCi of tritiated-2-deoxyglucose and incubated for an hour at 37° C. Cells were washed twice in PBS and then lysed in 0.2 N NaOH and 0.2% SDS. Lysates were transferred to scintillation tubes with scintillation fluid and quantified by scintillation counter.
One hundred thousand cells were plated per well in a six-well plate. The next day, cells were treated with the indicated concentration of drug and incubated for the indicated time. Cells were then washed twice with phosphate-buffered saline, incubated in low-glucose medium for 30 minutes, and ^3H-2-deoxyglucose (0.5 μCi) was added in 1 ml of glucose-free media for an additional hour. Cells were washed twice in PBS and lysed (0.2 N NaOH and 0.2% sodium dodecyl sulfate). Glucose uptake was quantified with a scintillation counter.

786-O = assay: FDG-PET imaging of 786-O xenografts; type: in vivo, mice; conditions: 786-O xenografts in CD-1 nude mice, three daily i.p. doses (11.6 mg/kg)
Method: FIG. 5A-E In vivo monitoring and efficacy of compound 47. […] 786-O, a renal clear cell carcinoma with a naturally occurring VHL mutation, were implanted subcutaneously into the flanks of CD-1 nude mice. Representative axial cross section of a mouse prior to treatment (left) and following three daily i.p. injections with compound 85 (11.6 mg/kg)(right), overlaid over CT scan. (B) Quantitatively, compound 85 inhibits FDG-PET in mouse xenografts. Quantification of FDG-PET inhibition by compound 85 as determined by the 90th percentile ROI for percent injected dose per gram (% ID/g) (*p<0.01). (C) Compound 85 is not toxic to normal tissues. (a, b) Kidney of vehicle- and compound 85-treated animals. (c, d) Spleen of vehicle- and compound 85-treated animals. (e, f) Liver of vehicle- and compound 85-treated animals. (g, h) Heart of vehicle- and compound 85-treated animals. (i, j) Salivary gland of vehicle- and compound 85-treated animals. (k, l) Brain of vehicle- and compound 85-treated animals. Scale bar represents 100 microns. (D) Compound 85 delays tumor growth. 786-O tumor-bearing mice were treated daily with vehicle or compound 85 (11.6 mg/kg for the first 3 days, followed by 7.8 mg/kg for the next week)(*p<0.005). (E) Compound 85 delays tumor growth in cells that have lost VHL. ACHN cells expressing a short hairpin RNA to VHL were implanted subcutaneously into the flanks of immunocompromised mice. Once tumors reached an average of >20 mm^3, mice were treated daily with compound 85 or vehicle (*p<0.05). All error bars represent the standard error of the mean.
In Vivo Studies and Immunohistochemistry. All experiments were approved by Stanford's Administrative Panel on Laboratory Animal Care (APLAC) and in accordance with both institutional and national guidelines. Five million cells were implanted subcutaneously into the flanks of nude mice (4-6 weeks old)(Charles River Laboratories). Tumors were measured with calipers. Volume was calculated by the following formula: width^2×0.5 length. […]

GLUT1 = biological target: T1, GLUT1 (Homo sapiens, UniProt P11166); assay: Affi-gel affinity binding of GLUT1 from cell lysates; conditions: salt elution, immunoblot; for binding of GLUT1 to Affi-gel immobilized compound, RCC4 lysates: RCC4 cell lysates
T1 construct: endogenous in cells; host or cells: RCC4 and RCC4/VHL cell lysates
T1 sequence (P11166 1-492): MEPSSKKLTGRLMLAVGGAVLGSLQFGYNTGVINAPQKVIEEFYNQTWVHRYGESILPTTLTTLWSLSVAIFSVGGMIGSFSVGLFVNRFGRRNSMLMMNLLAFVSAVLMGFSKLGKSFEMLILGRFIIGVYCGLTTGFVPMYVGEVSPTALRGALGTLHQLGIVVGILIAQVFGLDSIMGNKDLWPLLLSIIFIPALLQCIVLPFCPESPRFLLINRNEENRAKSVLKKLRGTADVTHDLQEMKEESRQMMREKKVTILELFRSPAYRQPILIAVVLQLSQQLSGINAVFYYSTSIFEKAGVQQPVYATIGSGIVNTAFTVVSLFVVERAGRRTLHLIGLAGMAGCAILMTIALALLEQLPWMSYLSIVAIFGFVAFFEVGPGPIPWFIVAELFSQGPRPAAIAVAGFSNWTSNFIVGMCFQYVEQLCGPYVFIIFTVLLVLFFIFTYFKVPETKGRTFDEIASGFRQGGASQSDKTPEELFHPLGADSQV
Method: All cells were grown in DMEM+10% FCS. ACHN and ACHN shVHL were a kind gift from George V. Thomas (UCLA). HIF overexpressing clones were described previously. Transfection of RNA oligos were performed with DnarmaFECT Reagent 1 (Dharmcon), according to manufacturer's directions. ON-TARGETplus SMART pools against HIF-1β/ARNT were purchased from Dharmacon. Glut1 was detected with anti-GLUT1 antibody from NeoMarkers/LabVision/Fisher. Pyruvate/lactate levels and hexokinase activity were both measured by fluorometric assay (BioVision and Sigma-Aldrich, respectively). ATP levels were measured by bioluminescence assay (ATP Determination Kit from Molecular Probes/Invitrogen). In vitro kinase activities were performed by Millipore KinaseProfiler. Affi-Gel 10 (BioRad) activated affinity media was coupled to analogs to generate immobilized affinity linkers.
We next wanted to investigate the differential glucose uptake between RCCs with and without VHL treated with compound 47 that subsequently lead to the selective death of VHL-deficient cells. We first examined the message levels of the two main glucose transporters, GLUT1 and GLUT2 by quantitative real-time PCR. GLUT1 is an inducible, high-affinity glucose transporter, while GLUT2 is the glucose transporter responsible for basal glucose uptake. Other family members, such as GLUT3 and GLUT4, are not expressed in renal cells. GLUT1 was highly expressed in cells lacking VHL, while cells with VHL had very low levels of GLUT1 (FIG. 3I). In contrast, GLUT2 was highly expressed in cells with wild-type VHL. Cells deficient in VHL had very low levels of GLUT2 that could barely be detected (FIG. 3J). […] In order to more directly test this, we performed binding assays to see whether compound 47 was directly interacting with GLUT1. An analog of compound 47, compound 116 was synthesized and linked to an immobilized linker (Affi-gel 10). Cell lysates from both RCC4 and RCC4/VHL were incubated with the Affi-gel-compound 47. […]

RCC4 [2] = assay: XTT IC50 / viability assay, RCC4 cells; type: cell-based, human; conditions: for IC50: Homo sapiens, RCC4, 96 h, XTT assay, four days
In short: (§1)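 RCC4 parental and VHL-reintroduced RCC4/VHL cells (DMEM, 10% FCS) treated with serially diluted drug for four days. Viability by XTT (0.3 mg/mL) with N-methyl dibenzopyrazine methyl sulfate, 1–2 h at 37 °C, absorbance 450 nm; IC50 by linear interpolation.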

RCC4/VHL [3] = assay: XTT IC50 assay, selectivity RCC4 versus RCC4 with VHL-reintroduced; type: cell-based, human; conditions: selectivity ratio of XTT IC50 values, RCC4 vs RCC4/VHL
In short: as §1

RCC4 [4] = assay: Clonogenic survival, RCC4; type: cell-based, human; conditions: RCC4 (VHL-deficient), 5 μM, 10 days
Method: Three hundred cells were plated into 60-mm tissue culture dishes in DMEM. The next day, cells were treated with vehicle or drug and were further incubated for an additional 10 days. […] The stain was removed and plates were washed in deionized water. Colonies were quantified. All conditions were measured in triplicate and all experiments were performed in triplicate.
For 2,3-bis[2-methoxy-4-nitro-5-sulfophenyl]-2H-tetrazolium-5-carboxanilide (XTT) assays, five thousand cells were plated in 96-well plates. The next day, vehicle (DMSO) or drug was added by serial dilution. […] Metabolism of XTT was quantified by measuring the absorbance at 450 nm. IC50s were calculated using linear interpolation. For clonogenic survival assays, three hundred cells were plated per 60 mm tissue culture dish. The cells were allowed to attach overnight and then treated with vehicle or drug for […]. […] All conditions were measured in triplicate and each experiment was done in duplicate or triplicate. To determine necrosis, cells were treated with drug for a given time point. Media and cells were collected, centrifugated, and resuspended in 0.4% trypan blue (Invitrogen). Live and dead cells were counted on a hematocytometer.

RCC4/VHL [5] = assay: Clonogenic survival, RCC4/VHL; type: cell-based, human; conditions: RCC4/VHL (wild-type VHL), 5 μM, 10 days
Method: Three hundred cells were plated into 60-mm tissue culture dishes in DMEM. The next day, cells were treated with vehicle or drug and were further incubated for an additional 10 days. After 10 days, the media was removed and colonies were fixed and stained in 95% ethanol and 0.1% crystal violet for 15 minutes. The stain was removed and plates were washed in deionized water. Colonies were quantified. All conditions were measured in triplicate and all experiments were performed in triplicate.
For 2,3-bis[2-methoxy-4-nitro-5-sulfophenyl]-2H-tetrazolium-5-carboxanilide (XTT) assays, five thousand cells were plated in 96-well plates. The next day, vehicle (DMSO) or drug was added by serial dilution. Four days later, media were aspirated, XTT solution (0.3 mg/ml of XTT (Sigma), 2.65 mg/ml N-methyl dibenxopyrazine methyl sulfate (Simga) in phenol red-free media) was added, and the plates were incubated at 37° C. for 1-2 hours. Metabolism of XTT was quantified by measuring the absorbance at 450 nm. IC50s were calculated using linear interpolation. For clonogenic survival assays, three hundred cells were plated per 60 mm tissue culture dish. The cells were allowed to attach overnight and then treated with vehicle or drug for 14 days. […] All conditions were measured in triplicate and each experiment was done in duplicate or triplicate. […] Live and dead cells were counted on a hematocytometer.

Cc1cccc(Nc2nc(-c3ccncc3)cs2)c1 [4-(pyridin-4-yl)-N-(m-tolyl)thiazol-2-amine, reference compound]
glucose uptake in VHL-deficient RCC4 cells (RCC4 [1]): did not decrease glucose uptake | glucose uptake within tumors by FDG-PET (786-O): did not have a decrease in glucose uptake

Cc1cccc(Nc2nc(-c3ccnc(-c4cn(CCCCCCN)nn4)c3)cs2)c1 [4-{2-[1-(6-aminohexyl)-1H-1,2,3-triazol-4-yl]-4-pyridinyl}-N-(3-methylphenyl)-1,3-thiazol-2-amine, reference compound]
binding of GLUT1 to Affi-gel immobilized compound, RCC4/VHL lysates (GLUT1; RCC4/VHL cell lysates): did not bind | binding of GLUT1 to Affi-gel immobilized compound, RCC4 lysates (GLUT1): did not bind

COc1cccc(S(=O)(=O)NCc2ccc(C(=O)Nc3cccnc3)cc2)c1 [Example 18, 4-((3-Methoxyphenylsulfonamido)methyl)-N-(pyridin-3-yl)benzamide]
IC50 (RCC4 [2]): 1 to 20 µM | number of RCC4 cells compared to RCC4/VHL (XTT metabolic activity) (RCC4 [2]; four days of treatment, concentration-dependent, FIG. 2A): significant decrease in the number of RCC4 cells | Ratio (RCC4:RCC/VHL) (RCC4/VHL [3]): b (“b” reflects from 10 to 100) | clonogenic survival of RCC4 (RCC4 [4]): specifically toxic to RCC4 cells | clonogenic survival of RCC4/VHL (RCC4/VHL [5]): relatively unaffected

NCCOCCOCCOCCOCCOCCOCC#Cc1ccc(S(=O)(=O)NCc2ccc(C(=O)Nc3cccnc3)cc2)cc1 [Example 100, 4-[({[4-(21-Amino-4,7,10,13,16,19-hexaoxahenicos-1-yn-1-yl)phenyl]sulfonyl}amino)methyl]-N-(3-pyridinyl)benzamide]
IC50 (RCC4 [2]): 1 to 20 µM | Ratio (RCC4:RCC/VHL) (RCC4/VHL [3]): a (“a” reflects a ratio of RCC4/RCC-VHL+ ranging from 1 to 10) | binding of GLUT1 to Affi-gel immobilized compound, RCC4 lysates (GLUT1): bound
